Laboratory results taken from US20230348518A1 (priority 2020, published 2023).
Entries after “also recorded” stand apart in the source; their conditions may differ.

Tests used:
HeLa cells = conditions: supra-physiologic doses; cited from earlier work
human CMG helicase [1] = test system: T1, human CMG helicase; assay: fluorescent-polarization (FP) assay measuring ADP production; type: biochemical; conditions: for CMG activity inhibited: 1 mM, fluorescence-polarization assay; for inhibition of CMG helicase in fluorescent-polarization assay: FIG. 3
T1 construct: made in house; host or cells: insect cells (Sf9), baculoviruses
Source text: (§1) We have focused on the enzymatic ATP hydrolysis steps used by the core MCM hexamers of the CMG helicase to identify ATP competitive inhibitors of […] and/or hydrolysis within one or more of the MCM hexamer pairs. To do this, we established a means to express and purify the human CMG helicase in our lab, and then we verified the isolated CMG is active in DNA unwinding assays. We then set up a novel assay to quantitatively measure ATP hydrolysis (ADP production) by the human CMG. This assay used reagents that are sensitive enough to read small changes in ADP production from our functioning CMG helicase in an in vitro biochemical enzyme assay. This assay relies on reading fluorescent-polarization (FP) changes from an antibody that binds to an ADP-fluorophore molecule that is displaced when the CMG produces ADP on its own. The results are obtained using a Perkin-Elmer Envision II FP plate reader. This approach is referred to as our primary screening assay. Our secondary screening assay, which is lower through-put, uses a traditional radioactive-based DNA fork unwinding method of analysis to verify whether a given potential CMGi is truly capable of inhibiting CMG elongation along DNA and subsequent fork unwinding.
The components for the assay used for ATP hydrolysis measurements of the hCMG are produced by BellBrook Labs, and the kit is called the ADP2 Transcreener™ FP Assay. […] As shown in FIGS. 10A-10B, the hCMG is incubated with ATP, buffer, and non-radioactive fork substrates for a determined length of time to allow hCMG activity to occur (or not, if an inhibitor is present). This produces ADP, which is recognized by the FP assay when free ADP competes an ADP-fluor off of a patented antibody that binds ADP with high affinity. […] But this polarity is reduced in a quantitative manner depending on the presence of free ADP (produced by the hCMG here), once the ADP-fluor is released from the antibody. Noteworthy, the fluor (Alexa 633) used here is in the far-red spectrum, which reduces problems during screening that can (likely) occur when chemicals themselves emit red or green wavelengths that interfere with plate reader steps (can give false positives). The system is very sensitive to even small changes in ADP production, being able to sense 0.5-2% changes quite easily (verified in our hands, using ADP-ATP standard curves). Low substrate conversion to ADP can be detected with a Z′-factor≥0.7 at 2.5% ATP conversion. The latter is achieved with a read time of less than 5 minutes. Signal stability is greater than 24 hr, and ADP-FP reagents are stable at RT for 8 hrs and tolerate 1% DMSO. Light output is also stable in the presence of up to 10% DMSO, DMF, ethanol, acetonitrile, or methanol solvents. ATP starting concentrations can be within the range of 0.1-1000 μM, and our hCMG enzyme requires 500 μM ATP for functioning near its published Km, which has been verified applies to the hCMG preparations (not shown).
Since hCMG is purified, feasibility testing of the FP assay was performed with the hCMG (FIGS. 10A-10B). Cubes, filters, and mirrors for dual-FP analysis were obtained using PE Envision II equipment, and such items were verified as functional. A window for change in millipolarizations (AmP window) is established with reagents alone, and the amount of patented antibody needed to achieve an optimal window is pre-determined in pilot titration assays using ATP at the required 500 μM level. […] Using formulas BellBrook Labs supplies for their reagents, it was also calculated that the assay was working with a Z′-factor of >0.6 (calculations not shown). Optimal ΔmP can be as high as 80% change (EC80). Achieving this will also increase our Z′-factor to 0.8-0.9.

human CMG (hCMG) = test system: T2, human CMG (hCMG); assay: human CMG biochemical assays (primary and secondary), format not specified; conditions: for inhibition of the human CMG in biochemical assays (primary and secondary): in vitro
T2 construct: made in house; host or cells: insect cells (Sf9), baculoviruses
Source text: as §1

human CMG helicase [2] = test system: T1, human CMG helicase; assay: radioactive DNA fork unwinding helicase assay; type: biochemical; conditions: for inhibition of CMG activity in fork unwinding assay: 0.5 mM, 30 minutes at 37 degrees Celsius, compared to Novobiocin; for inhibition of human CMG helicase in fork unwinding assay: in vitro, FIG. 2
Source text: as §1
The human CMG helicase assay was performed with purified CMG before glycerol gradient centrifugation. Novobiocin (Compound A), Clorobiocin (Compound D), and Coumermycin A1 (Compound B) were incubated with 2 μL human CMG and 1 μL ^32P-labeled DNA forks for 30 minutes at 37 degrees Celsius. The reactions were stopped with 6× loading buffer, separated in 10% PAGE, and dried on filter paper followed by autoradiography.
(§2) For feasibility of this example, it is shown that sufficient quantities of enzymatically active hCMG can be purified using an established approach (FIGS. 9A-9D). This method of hCMG purification was previously devised by the Hurwitz lab and involves the co-expression of all 11 subunits of the hCMG using baculoviruses and insect cells, followed by a five-step chromatography-based enrichment scheme. The steps of the purification are outlined in FIG. 9A, with Westerns on isolated fractions used to assess the completeness of hCMG subunits and enzyme recovered after the final glycerol gradient step (FIG. 9B). […] Activity is measured using a classical fork-unwinding helicase assay that relies on radioactive forks being separated, and ssDNA being recognized and quantifiable in gels using PhosphorImager analyses (FIG. 9D). SV40-derived Tag helicase was also purified as a positive control, and our active hCMG is close in forkunwinding output to that of TAg. […] Given that multiple fractions produce active hCMG, this provides ample quantities of hCMG to design, calibrate, and test a workflow for hCMG chemical screening. […]

multiple tumor types = assay: sensitivity of multiple tumor types; type: cell-based; conditions: low doses, FIG. 17
[3] = test system: DNA damage / Parp cleavage in tumor cells; assay: DNA damage and Parp cleavage in cells; type: cell-based; conditions: tumor cells versus Hacat
[4] = molecular target: HPV18 E1 helicase (helicase domain only) (Human papillomavirus type 18, UniProt P06789); assay: HPV18 E1 helicase inhibition; type: biochemical
[5] = test system: RPA loading onto DNA/chromatin in A549 NSCLC cells; assay: RPA32 western blot of total cell extracts and chromatin-bound fractions; type: cell-based; conditions: A549 NSCLC cells, 0.1, 10, or 25 μM, 48 hours
Source text: Cells were harvested and protein from each group isolated into total cell extracts (TCE) or chromatin-bound fractions. Standard SDS-PAGE followed by western blot was used to separate proteins and probe for RPA32 presence in TCE and bound chromatin. Actin serves as a loading control. […] There is also some toxicity of Coumermycin A1 (Compound B).

[6] = test system: Hacat non-tumor skin cells; assay: sensitivity of non-tumor Hacat cells; type: cell-based; conditions: FIGS. 17 and 19
[7] = molecular target: HPV31 E1 helicase (full-length) (Human papillomavirus 31, UniProt P17382); assay: HPV31 E1 helicase inhibition; type: biochemical
HPV16 E1 helicase [8] = assay: HPV16 E1 helicase inhibition; type: biochemical; conditions: for inhibition of E1 helicase from HPV16: FIG. 12, construct not stated
HPV16 E1 helicase [9] = molecular target: HPV16 E1 helicase (Human papillomavirus type 16, UniProt P03114); assay: HPV16 E1 helicase inhibition; type: biochemical; conditions: full-length
OS tumor = OS tumor growth in mice; type: in vivo
[10] = test system: MCM assembly and activity; assay: MCM assembly and activity in cells; type: cell-based; conditions: Hacat cells and OS tumor cells (143b)
OS tumor cells = assay: inhibition of osteosarcoma tumor cells; type: cell-based; conditions: FIGS. 14A-14F
[11] = molecular target: T3, Simian virus 40 (SV40) large-T-antigen (Tag) DNA helicase (Simian virus 40, UniProt P03070); assay: classic fork unwinding assay; type: biochemical; conditions: in vitro, FIG. 2 and titration FIG. 11
T3 construct: made in house
Source text: as §2, with “TAg. Each prep of hCMG thus obtained is giving us -5-10 fmol of hCMG per uL of glycerol gradient fraction, with fractions totaling 150-170 uL (3-4 fractions obtained with obvious hCMG; FIG. 9B). Only 1 uL hCMG is required to easily see activity using this method (FIG. 9D).” for “TAg.”

T3 sequence (P03070 whole entry): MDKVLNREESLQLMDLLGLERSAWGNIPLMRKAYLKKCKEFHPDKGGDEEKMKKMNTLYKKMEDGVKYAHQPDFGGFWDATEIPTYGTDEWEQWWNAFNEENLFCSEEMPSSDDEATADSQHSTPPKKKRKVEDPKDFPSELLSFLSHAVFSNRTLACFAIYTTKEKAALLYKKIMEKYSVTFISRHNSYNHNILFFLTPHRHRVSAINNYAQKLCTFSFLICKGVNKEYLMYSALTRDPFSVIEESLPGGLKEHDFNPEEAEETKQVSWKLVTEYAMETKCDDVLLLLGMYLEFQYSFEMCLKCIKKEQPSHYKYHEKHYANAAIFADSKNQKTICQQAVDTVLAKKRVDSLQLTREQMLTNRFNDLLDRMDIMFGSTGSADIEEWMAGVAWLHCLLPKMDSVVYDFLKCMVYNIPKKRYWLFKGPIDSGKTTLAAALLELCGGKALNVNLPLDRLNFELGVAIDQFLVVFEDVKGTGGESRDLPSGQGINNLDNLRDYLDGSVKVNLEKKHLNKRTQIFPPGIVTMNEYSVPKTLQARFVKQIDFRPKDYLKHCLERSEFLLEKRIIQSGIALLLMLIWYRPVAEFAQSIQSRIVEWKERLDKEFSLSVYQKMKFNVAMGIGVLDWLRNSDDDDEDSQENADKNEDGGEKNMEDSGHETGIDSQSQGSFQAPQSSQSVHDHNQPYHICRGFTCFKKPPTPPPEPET
Chain of HPV18 E1 helicase (helicase domain only) (P06789 458-608 limits assumed): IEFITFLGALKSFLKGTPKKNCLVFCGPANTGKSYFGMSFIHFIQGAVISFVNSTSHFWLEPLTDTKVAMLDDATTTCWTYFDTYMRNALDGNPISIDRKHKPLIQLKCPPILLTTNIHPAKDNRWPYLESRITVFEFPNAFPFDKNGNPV
Chain of HPV31 E1 helicase (full-length) (P17382 whole entry): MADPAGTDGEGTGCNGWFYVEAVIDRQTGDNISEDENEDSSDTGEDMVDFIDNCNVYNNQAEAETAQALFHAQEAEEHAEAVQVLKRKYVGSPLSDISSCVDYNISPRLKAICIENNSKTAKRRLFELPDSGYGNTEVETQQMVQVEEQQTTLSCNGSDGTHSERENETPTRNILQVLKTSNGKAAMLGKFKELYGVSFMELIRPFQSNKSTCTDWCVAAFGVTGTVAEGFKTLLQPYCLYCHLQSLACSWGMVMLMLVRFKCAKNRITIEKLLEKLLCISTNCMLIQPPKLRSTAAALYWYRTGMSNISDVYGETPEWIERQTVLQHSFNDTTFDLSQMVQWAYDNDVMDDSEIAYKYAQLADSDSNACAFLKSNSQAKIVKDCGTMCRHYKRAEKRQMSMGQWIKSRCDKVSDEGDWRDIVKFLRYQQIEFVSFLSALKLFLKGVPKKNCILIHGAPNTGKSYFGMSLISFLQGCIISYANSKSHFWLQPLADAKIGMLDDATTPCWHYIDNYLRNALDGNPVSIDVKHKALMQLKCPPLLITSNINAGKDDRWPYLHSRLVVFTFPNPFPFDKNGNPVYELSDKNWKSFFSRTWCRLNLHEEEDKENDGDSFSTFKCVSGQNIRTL
Chain of HPV16 E1 helicase (Human papillomavirus type 16, UniProt P03114) (P03114 whole entry): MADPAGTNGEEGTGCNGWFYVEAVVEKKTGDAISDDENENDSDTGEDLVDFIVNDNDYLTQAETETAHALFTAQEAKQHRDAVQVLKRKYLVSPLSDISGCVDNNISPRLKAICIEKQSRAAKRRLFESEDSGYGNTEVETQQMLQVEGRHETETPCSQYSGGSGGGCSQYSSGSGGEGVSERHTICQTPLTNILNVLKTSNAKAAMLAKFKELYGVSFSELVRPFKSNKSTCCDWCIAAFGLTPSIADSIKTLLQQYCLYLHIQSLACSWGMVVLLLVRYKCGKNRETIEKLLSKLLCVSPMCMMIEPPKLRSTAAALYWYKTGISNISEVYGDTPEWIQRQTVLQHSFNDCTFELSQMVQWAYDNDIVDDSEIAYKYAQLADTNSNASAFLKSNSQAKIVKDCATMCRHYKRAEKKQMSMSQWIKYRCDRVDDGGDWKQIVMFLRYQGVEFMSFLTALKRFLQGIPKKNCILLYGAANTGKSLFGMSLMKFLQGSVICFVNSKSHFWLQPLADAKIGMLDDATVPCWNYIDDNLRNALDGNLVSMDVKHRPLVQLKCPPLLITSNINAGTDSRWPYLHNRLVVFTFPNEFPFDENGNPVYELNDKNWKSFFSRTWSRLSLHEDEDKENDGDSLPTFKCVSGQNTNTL

SMILES | CMG activity inhibited (human CMG helicase [1]) | inhibition of CMG helicase in fluorescent-polarization assay (human CMG helicase [1]) | inhibition of the human CMG in biochemical assays (primary and secondary) (human CMG (hCMG)) | inhibition of CMG activity in fork unwinding assay (human CMG helicase [2]) | inhibition of human CMG helicase in fork unwinding assay (human CMG helicase [2]) | inhibition of E1 helicase from HPV16 (HPV16 E1 helicase [8]) | inhibition of OS tumor cells versus non-tumor cells (Hacat) (OS tumor cells) | inhibition of SV40 Tag helicase in fork unwinding assay [11] | also measured
O=C(O)c1cn(C2CC2)c2cc(N3CCNCC3)c(F)cc2c1=O [ciprofloxacin] | – | – | – | – | – | – | – | – | cell growth of HeLa cells (HeLa cells): stopped cell growth
CO[C@@H]1[C@@H](OC(=O)c2ccc(C)[nH]2)[C@@H](O)[C@H](Oc2ccc3c(O)c(NC(=O)c4ccc(O)c(CC=C(C)C)c4)c(=O)oc3c2Cl)OC1(C)C [clorobiocin] | 81.5% | inhibiting CMG helicase | very effectively inhibit the human CMG helicase in vitro; also recorded: effectively inhibit the human CMG | inhibit CMG activity | – | – | – | – | inhibition of human CMG (hCMG), dose dependence (human CMG (hCMG); FIG. 24): inhibits human CMG (hCMG) in a dose-dependent manner; inhibition of human CMG (hCMG) (human CMG (hCMG); direct comparison to novobiocin (500 uM), FIG. 25): inhibits human CMG (hCMG)
CO[C@@H]1[C@@H](OC(=O)c2ccc(C)[nH]2)[C@@H](O)[C@H](Oc2ccc3c(O)c(NC(=O)c4c[nH]c(C(=O)Nc5c(O)c6ccc(O[C@@H]7OC(C)(C)[C@H](OC)[C@@H](OC(=O)c8ccc(C)[nH]8)[C@H]7O)c(C)c6oc5=O)c4C)c(=O)oc3c2C)OC1(C)C [coumermycin-A1, coumermycin A1] | 91.7% | inhibiting CMG helicase | effective CMGi | inhibit CMG activity | capable of being inhibited | can be directly inhibited | inhibits OS tumor cells with more specificity than non-tumor cells (Hacat) | capable of being inhibited; also recorded: inhibiting SV40 Tag helicase | sensitivity of multiple tumor types to CMG helicase inhibition (multiple tumor types): sensitive to low doses; DNA damage leading to Parp cleavage [3]: causes DNA damage specifically in tumor cells; inhibition of HPV18 E1 helicase [4]: is inhibited; toxicity [5]: some toxicity; RPA loading onto DNA/chromatin (RPA32 in chromatin-bound fraction) ([5]; listed as Coumermycin A1): inhibits RPA loading onto DNA/chromatin; RPA loading onto DNA/chromatin (RPA32 in chromatin-bound fraction) ([5]; listed as coumermycin A1): inhibiting RPA loading onto DNA/chromatin; sensitivity of Hacat non-tumor cells to CMG helicase inhibition [6]: far less sensitive; inhibition of HPV31 E1 helicase [7]: is inhibited; inhibition of HPV16 E1 helicase (HPV16 E1 helicase [8]; helicase domain only): is inhibited; inhibition of HPV16 E1 helicase (HPV16 E1 helicase [9]): is inhibited; OS tumor growth in mice (OS tumor; 12 day analysis): suppresses OS tumor growth in mice; OS tumor growth in mice (OS tumor; 18 day analysis): suppresses OS tumor growth in mice; inhibition of MCM assembly and activity [10]: inhibits MCM assembly and activity
CO[C@@H]1[C@@H](OC(N)=O)[C@@H](O)[C@H](Oc2ccc3c(O)c(NC(=O)c4ccc(O)c(CC=C(C)C)c4)c(=O)oc3c2C)OC1(C)C [novobiocin] | 12.5% | does not | not to inhibit the human CMG at any level of exposure | – | not | can be directly inhibited | does not inhibit any cells | not | RPA loading onto DNA/chromatin (RPA32 in chromatin-bound fraction) [5]: does not inhibit RPA at all
